Values quoted from earlier work in patent US20040096496A1, “Sustained release pharmaceutical composition of a cephalosporin antibiotic” (Orchid Chemicals & Pharmaceuticals Limited, priority 2002, published 2004).

Conditions: background statement, species not given

- half-life: 1.17 h
Structure (SMILES): CC=CC1=C(C(=O)O)N2C(=O)[C@@H](NC(=O)[C@H](N)c3ccc(O)cc3)[C@H]2SC1 [Cefprozil]
